Patent US6476049B2, “Therapeutic agent for intermittent claudication” (Ajinomoto Co., Inc., priority 1999, dated 2002)
Where a name gives a salt, the structure may show the parent alone.

Assays:
[1] = tested on: Rabbit Intermittent Claudication Model (injured limb of the high cholesterol chow-loaded rabbit); test: Rabbit intermittent claudication model: recovery time of tissue oxygen saturation after exercise (near infrared spectrophotometer); assay type: in vivo, male New Zealand White Rabbits; settings: for Recovery Time of Tissue Oxygen Saturation: 3 days after operation, injured limb, high cholesterol chow-loaded rabbit; for Effect on the recovery time of the tissue oxygen saturation (in words): vs control, drug of the invention 3 mg/kg, pentoxifylline 300 mg/kg, cilostazol 100 mg/kg, sarpogrelate hydrochloride 300 mg/kg
Source text: To male New Zealand White Rabbits, there was given 1% cholesterol-containing RC4 (available from ORIENTAL KOBO Co., Ltd.) chow over 4 weeks (100 g/day/animal) to obtain a high cholesterol-loaded group (8 animals), while normal RC4 (available from ORIENTAL KOBO Co., Ltd.) chow was given to a group of such animals (normal feed-loaded group: 6 animals). The groins of these animals belonging to these two groups were incised in their supine position, under the anesthesia with ketamine and xylazine, followed by exposing the right femoral artery and then repeating, three times, the balloon injury treatment, which comprises the steps of inserting a Fogarty's balloon catheter in a length of 7 cm into the artery, expanding the balloon catheter to a diameter of 5 mm within the right iliac artery and then pulling out the catheter while the balloon catheter was still in the expanded state and finally ligating the right femoral artery. After 3 days from the operation, the both gluteal regions and the posterior of the lower limbs were dissected in the supine position of the animal under the anesthesia with ketamine and xylazine. The probe of a near infrared spectrophotometer was directly fitted to the interior of the both side gastrocnemius muscles, followed by application of electrical stimulation at 1 Hz to the sciatic nerves on both sides for 2 minutes as exercise loads.
After the application of exercise, these animals were kept quiet rest, followed by monitoring the process in which the degree of tissue oxygen saturation reduced during exercise was recovered, using an multi-wavelength-type near infrared spectrophotometer to thus obtain the time required for the recovery of the degree of tissue oxygen saturation in the both limbs. As such multi-wavelength-type near infrared spectrophotometer, there was used MCPD-2000 available from OTSUKA ELECTRONICS Co., Ltd., which had been improved in such a manner that the device could almost simultaneously detect the tissue oxygen saturation for the both side gastrocnemius muscles. In this respect, the distance between the light guide and detector of near infrared light rays was set at a level of 5 mm. A ½ recovered tissue oxygen saturation (½ StO2), which was an intermediate value of the tissue oxygen saturation observed after the application of the exercise (the minimum tissue oxygen saturation after exercise) and the tissue oxygen saturation observed after the recovery of exercise (the maximum tissue oxygen saturation after exercise) and then the recovery time was defined to be the time required for arriving at the level of ½ StO2 after the end of exercise-application.
To male New Zealand White Rabbits, there was given 1% cholesterol-containing RC4 (available from ORIENTAL KOBO Co., Ltd.) chow over 4 weeks (100 g/day/animal), followed by dividing these animals into two groups in such a manner that the total cholesterol levels in the plasma were identical to one another and then subjecting these two groups to treatments identical to those used in the foregoing model.
To these animals, there was orally administered, once a day, 1-formyl-N-(2-(4-(5H-dibenzo [a, d] cyclohepten-5-ylidene)-1-piperidinyl)) ethyl isonipecotic acid amide represented by the formula (2) after dissolving it in water in an amount of 3 mg/kg over the term extending from the day following the operation to the day on which the near infrared spectrophotometric measurement was initiated. On the other hand, distilled water was orally administered to the control group once a day. After 3 days from the operation, the recovery time of the tissue oxygen saturation after exercise was determined using a near infrared spectrophotometer.
The same procedures used in Example 1 were repeated except for using 300 mg/kg of pentoxifylline in place of the compound represented by the formula (2) to thus carry out the determination. […]

[2] = tested on: Rat Intermittent Claudication Model; test: Rat intermittent claudication model (lauric acid injection): maximum running/walking time on treadmill; assay type: in vivo, male SD rats; settings: for Maximum Walking Time, recovery rate relative to day 1 (defined to be 100), After 1 day: after 1 day from lauric acid injection (baseline = 100); for Maximum Walking Time, recovery rate relative to day 1 (defined to be 100), After 1 day / Maximum Walking Time, recovery rate relative to day 1 (= 100), After 3 days / Maximum Walking Time, recovery rate relative to day 1 (= 100), After 7 days / Maximum Walking Time, recovery rate relative to day 1 (= 100), After 14 days / Maximum Walking Time, recovery rate relative to day 1 (= 100), After 21 days: formula (2) hydrochloride 3 mg/kg/day, pentoxifylline 60 mg/kg/day, oral; for Maximum Walking Time, recovery rate relative to day 1 (= 100), After 3 days: after 3 days from lauric acid injection, control 132; for Maximum Walking Time, recovery rate relative to day 1 (= 100), After 7 days: after 7 days from lauric acid injection, control 177; for Maximum Walking Time, recovery rate relative to day 1 (= 100), After 14 days: after 14 days from lauric acid injection, control 198; for Maximum Walking Time, recovery rate relative to day 1 (= 100), After 21 days: after 21 days from lauric acid injection, control 215
Method: (§1) Using an improved model of Corcico et al. (Corcico N. Cardiovasc. Drugs Ther., 1993, 7:241-251), male SD rats were made run on a rat treadmill (available from NATSUME SEISAKUSHO) at a speed of 10 m/min, followed by stepwise raising the running speed by 5 m/min every 3 minutes to thus determine the time (the maximum running time) required till the rats could not run any more and to thus evaluate the running ability of each animal. On the following day, these rats were anesthetized with pentobarbital and then 3.5 mg/ml of sodium laurate solution (available from SIGMA Company; dissolved in a 0.5% glucose aqueous solution) was injected into the right and left femoral arteries at a dose of 100 μl/leg to thus induce artificial intermittent claudication in the animals.
After 1, 3, 7, 14 and 21 days from the injection of the sodium laurate solution, the maximum running time was determined according to the method described above.
(§2) The same procedures used in Reference Example 2 were repeated using male SD rats (15 animals) to thus establish a rat intermittent claudication model. On the day following the lauric acid-injection, each animal was inspected for the maximum running time and these animals were divided into three groups so that the running abilities of these groups were almost identical to one another. To the first group (drug-administered group), there was orally administered, once a day, 3 mg/kg of hydrochloride of the compound represented by the formula (2) dissolved in distilled water over the term extending from the day following the lauric acid injection to 21st day, while 60 mg/kg of pentoxifylline (available from SIGMA Company) dissolved in distilled water was orally administered to the second group once a day as a comparative example. To the third group (control group), there was orally administered distilled water once a day. After 3, 7, 14 and 21 days from the lauric acid-injection, the maximum running time of each animal was determined to thus evaluate the recovery rate relative to the maximum walking time observed after the day following the lauric acid-injection (this was defined to be 100). In addition, the presence of any lesion on the limbs was simultaneously confirmed. The presence of any lesion on the lower limb was rated according to the following 6 evaluation criteria: 0: normal and all of the 5 toes could widely be opened; 1: limbs could look upward, but the toes could not be opened; 2: the limbs looked downward; 3: not less than 3 claws were necrosed; 4: not less than 3 toes were necrosed; and 5: not less than 3 toes were left out.

[3] = tested on: Rat Intermittent Claudication Model; test: Rat intermittent claudication model (lauric acid injection): score for lower limb lesion; assay type: in vivo, male SD rats; settings: for Score for Lower Limb Lesion, After 1 day / Score for Lower Limb Lesion, After 3 days / Score for Lower Limb Lesion, After 7 days / Score for Lower Limb Lesion, After 14 days / Score for Lower Limb Lesion, After 21 days: score 0-5, formula (2) hydrochloride 3 mg/kg/day, pentoxifylline 60 mg/kg/day, oral; for Score for Lower Limb Lesion, After 1 day: after 1 day from lauric acid injection (baseline), control 4.0; for Score for Lower Limb Lesion, After 3 days / Score for Lower Limb Lesion, After 7 days / Score for Lower Limb Lesion, After 14 days: control 3.8; for Score for Lower Limb Lesion, After 21 days: control 3.4
Method: as §1, §2

O=C1CCc2cc(OCCCCc3nnnn3C3CCCCC3)ccc2N1 [Cilostazol, cilostazol]
Recovery Time of Tissue Oxygen Saturation ([1]; 100 mg/kg orally once a day, control 2.8 ± 0.97): 3.5 ± 0.52 min | Effect on the recovery time of the tissue oxygen saturation (in words) [1]: does not show any substantial reduction of the recovery time

O=CN1CCC(C(=O)NCCN2CCC(=C3c4ccccc4C=Cc4ccccc43)CC2)CC1 [Compound of Formula (2), 1-formyl-N-(2-(4-(5H-dibenzo[a,d]cyclohepten-5-ylidene)-1-piperidinyl))-ethyl-isonipecotic acid amide]
Recovery Time of Tissue Oxygen Saturation ([1]; 3 mg/kg orally once a day, control 3.8 ± 0.46): 2.0 ± 0.40 min | Maximum Walking Time, recovery rate relative to day 1 (defined to be 100), After 1 day [2]: 100 | Maximum Walking Time, recovery rate relative to day 1 (= 100), After 3 days [2]: 189 | Maximum Walking Time, recovery rate relative to day 1 (= 100), After 7 days [2]: 256 | Maximum Walking Time, recovery rate relative to day 1 (= 100), After 14 days [2]: 252 | Maximum Walking Time, recovery rate relative to day 1 (= 100), After 21 days [2]: 317 | Score for Lower Limb Lesion, After 1 day [3]: 4.0 | Score for Lower Limb Lesion, After 3 days [3]: 3.2 | Score for Lower Limb Lesion, After 7 days [3]: 2.2 | Score for Lower Limb Lesion, After 14 days [3]: 1.7 | Score for Lower Limb Lesion, After 21 days [3]: 1.5

CC(=O)CCCCn1c(=O)c2c(ncn2C)n(C)c1=O [Pentoxifylline, pentoxifylline]
Recovery Time of Tissue Oxygen Saturation ([1]; 300 mg/kg orally once a day, control 3.8 ± 1.28): 7.1 ± 1.65 min | Effect on the recovery time of the tissue oxygen saturation (in words) [1]: did not show any reduction in the recovery time | Maximum Walking Time, recovery rate relative to day 1 (defined to be 100), After 1 day [2]: 100 | Maximum Walking Time, recovery rate relative to day 1 (= 100), After 3 days [2]: 178 | Maximum Walking Time, recovery rate relative to day 1 (= 100), After 7 days [2]: 189 | Maximum Walking Time, recovery rate relative to day 1 (= 100), After 14 days [2]: 211 | Maximum Walking Time, recovery rate relative to day 1 (= 100), After 21 days [2]: 249 | Effect on the maximum walking time (in words) ([2]; vs control group, formula (2) hydrochloride 3 mg/kg (after 7 days), pentoxifylline 60 mg/kg): had a tendency of increasing the maximum walking time | Score for Lower Limb Lesion, After 1 day [3]: 4.0 | Score for Lower Limb Lesion, After 3 days [3]: 3.7 | Score for Lower Limb Lesion, After 7 days [3]: 3.7 | Score for Lower Limb Lesion, After 14 days [3]: 3.3 | Score for Lower Limb Lesion, After 21 days [3]: 2.5 | Effect on the development of lesions of the lower limbs (in words) ([3]; vs control group, formula (2) hydrochloride 3 mg/kg, pentoxifylline 60 mg/kg): the effect was still insufficient

COc1cccc(CCc2ccccc2OCC(CN(C)C)OC(=O)CCC(=O)O)c1 (centres unmarked) [Sarpogrelate · HCl, sarpogrelate hydrochloride]
Recovery Time of Tissue Oxygen Saturation ([1]; 300 mg/kg (table) orally once a day, control 3.9 ± 1.08): 3.4 ± 1.33 min | Effect on the recovery time of the tissue oxygen saturation (in words) [1]: did not show any reduction of the recovery time
